Common to all, as to assay type: cell-based
Assay [1] deals with protein kinases (human kinome) (Homo sapiens, UniProt P11802). The settings on record: experiment wp016.
The target of assay [2] is protein kinases (human kinome) (Homo sapiens, UniProt P51451).
The target in assay [3] is protein kinases (human kinome) (Homo sapiens, UniProt Q00534).
The target in assay [4] is T1, protein kinases (human kinome) (Homo sapiens, UniProt O14976).
T1 sequence (O14976 1-1311): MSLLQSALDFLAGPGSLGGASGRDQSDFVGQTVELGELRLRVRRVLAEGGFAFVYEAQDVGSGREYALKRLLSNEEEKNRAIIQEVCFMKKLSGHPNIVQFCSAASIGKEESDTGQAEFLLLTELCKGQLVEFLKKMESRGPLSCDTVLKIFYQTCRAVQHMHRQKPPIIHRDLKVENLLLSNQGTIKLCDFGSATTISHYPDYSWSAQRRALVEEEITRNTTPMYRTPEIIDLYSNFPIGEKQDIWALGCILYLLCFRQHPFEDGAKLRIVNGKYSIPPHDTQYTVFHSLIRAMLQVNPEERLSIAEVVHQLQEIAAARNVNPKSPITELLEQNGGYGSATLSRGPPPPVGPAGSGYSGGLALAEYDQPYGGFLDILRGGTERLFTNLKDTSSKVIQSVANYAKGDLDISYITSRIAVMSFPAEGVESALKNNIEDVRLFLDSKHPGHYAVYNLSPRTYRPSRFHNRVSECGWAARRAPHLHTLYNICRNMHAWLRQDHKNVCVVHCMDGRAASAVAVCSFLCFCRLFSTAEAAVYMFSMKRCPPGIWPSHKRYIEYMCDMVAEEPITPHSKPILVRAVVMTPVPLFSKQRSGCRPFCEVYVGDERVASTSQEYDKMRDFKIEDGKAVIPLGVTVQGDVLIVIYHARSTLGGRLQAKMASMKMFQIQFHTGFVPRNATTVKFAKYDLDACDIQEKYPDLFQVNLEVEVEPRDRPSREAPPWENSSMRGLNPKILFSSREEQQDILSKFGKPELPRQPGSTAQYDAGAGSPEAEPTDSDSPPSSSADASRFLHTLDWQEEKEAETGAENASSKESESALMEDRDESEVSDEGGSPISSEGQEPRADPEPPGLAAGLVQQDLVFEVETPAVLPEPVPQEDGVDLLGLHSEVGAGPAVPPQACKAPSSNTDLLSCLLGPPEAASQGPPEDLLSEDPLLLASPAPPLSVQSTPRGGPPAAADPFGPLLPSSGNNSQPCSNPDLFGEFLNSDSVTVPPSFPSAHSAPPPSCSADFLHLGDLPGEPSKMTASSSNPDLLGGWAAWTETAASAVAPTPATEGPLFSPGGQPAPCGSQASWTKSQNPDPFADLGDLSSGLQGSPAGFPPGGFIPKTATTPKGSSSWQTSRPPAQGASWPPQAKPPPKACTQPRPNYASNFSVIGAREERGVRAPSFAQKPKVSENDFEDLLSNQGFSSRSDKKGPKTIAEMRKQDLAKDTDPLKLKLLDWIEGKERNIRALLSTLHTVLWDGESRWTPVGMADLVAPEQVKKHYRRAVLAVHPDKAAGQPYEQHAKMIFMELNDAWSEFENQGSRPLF

Assay [5] deals with protein kinases (human kinome) (Homo sapiens, UniProt P16591).
Assay [6] has as its target T2, protein kinases (human kinome) (Homo sapiens, UniProt O14965).
T2 sequence (O14965 1-403): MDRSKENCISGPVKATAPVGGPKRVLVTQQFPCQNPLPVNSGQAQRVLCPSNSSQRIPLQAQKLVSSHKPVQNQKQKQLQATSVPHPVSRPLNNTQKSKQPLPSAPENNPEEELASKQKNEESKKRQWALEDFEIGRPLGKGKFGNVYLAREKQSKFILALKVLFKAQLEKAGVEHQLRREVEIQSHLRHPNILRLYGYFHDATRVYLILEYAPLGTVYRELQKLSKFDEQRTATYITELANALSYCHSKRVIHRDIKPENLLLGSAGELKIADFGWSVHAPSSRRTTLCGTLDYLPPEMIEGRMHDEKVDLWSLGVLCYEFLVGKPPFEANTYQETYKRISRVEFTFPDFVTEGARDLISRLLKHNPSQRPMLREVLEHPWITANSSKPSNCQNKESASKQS
The settings on record: experiment wp016.

Assay [7] has as its target protein kinases (human kinome) (Homo sapiens, UniProt Q2M2I8). The settings on record: experiment wp016.

SMILES strings stand for the structures. Where two headings read alike, the source gives them in different places.

protein kinases (human kinome) (Homo sapiens, UniProt Q2M2I8), sequence (Q2M2I8 whole entry): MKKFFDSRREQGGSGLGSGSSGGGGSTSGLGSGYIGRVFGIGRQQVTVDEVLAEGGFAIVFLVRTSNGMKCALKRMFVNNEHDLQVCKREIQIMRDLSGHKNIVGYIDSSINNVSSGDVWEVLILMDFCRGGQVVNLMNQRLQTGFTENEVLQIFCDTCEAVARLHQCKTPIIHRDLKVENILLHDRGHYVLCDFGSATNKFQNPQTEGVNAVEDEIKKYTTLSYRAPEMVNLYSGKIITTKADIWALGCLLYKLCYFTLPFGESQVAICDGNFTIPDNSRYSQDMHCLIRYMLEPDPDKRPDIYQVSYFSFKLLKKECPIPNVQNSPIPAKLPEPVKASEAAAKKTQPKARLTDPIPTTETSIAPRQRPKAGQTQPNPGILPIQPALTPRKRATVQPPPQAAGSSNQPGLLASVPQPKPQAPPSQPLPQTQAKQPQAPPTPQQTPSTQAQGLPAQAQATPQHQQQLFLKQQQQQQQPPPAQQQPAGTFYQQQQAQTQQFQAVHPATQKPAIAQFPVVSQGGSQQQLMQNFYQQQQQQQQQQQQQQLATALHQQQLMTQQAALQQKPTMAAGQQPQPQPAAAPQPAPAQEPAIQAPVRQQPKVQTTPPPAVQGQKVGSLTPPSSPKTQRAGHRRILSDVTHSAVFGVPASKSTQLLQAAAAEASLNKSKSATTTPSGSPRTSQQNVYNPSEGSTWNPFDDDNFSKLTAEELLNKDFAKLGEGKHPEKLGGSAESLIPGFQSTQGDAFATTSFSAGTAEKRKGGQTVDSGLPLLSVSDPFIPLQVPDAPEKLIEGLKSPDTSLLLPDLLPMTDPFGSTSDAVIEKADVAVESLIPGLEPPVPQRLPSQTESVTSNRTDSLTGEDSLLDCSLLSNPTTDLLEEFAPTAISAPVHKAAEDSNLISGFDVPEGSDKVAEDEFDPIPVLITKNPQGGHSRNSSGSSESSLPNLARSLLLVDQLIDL
protein kinases (human kinome) (Homo sapiens, UniProt P51451), sequence (P51451 whole entry): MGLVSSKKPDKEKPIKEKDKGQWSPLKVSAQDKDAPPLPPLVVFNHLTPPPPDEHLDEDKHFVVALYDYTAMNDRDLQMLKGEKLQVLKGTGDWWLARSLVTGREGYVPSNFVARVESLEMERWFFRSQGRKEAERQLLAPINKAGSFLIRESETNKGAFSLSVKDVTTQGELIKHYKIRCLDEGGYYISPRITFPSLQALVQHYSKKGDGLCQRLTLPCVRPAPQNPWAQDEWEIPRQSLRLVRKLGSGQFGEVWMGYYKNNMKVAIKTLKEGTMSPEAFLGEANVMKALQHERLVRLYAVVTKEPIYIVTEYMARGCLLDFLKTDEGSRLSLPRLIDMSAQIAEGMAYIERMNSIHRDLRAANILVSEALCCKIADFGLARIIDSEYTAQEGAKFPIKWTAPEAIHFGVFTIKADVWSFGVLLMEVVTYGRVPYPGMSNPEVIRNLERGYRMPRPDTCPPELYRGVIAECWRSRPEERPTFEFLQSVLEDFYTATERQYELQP
protein kinases (human kinome) (Homo sapiens, UniProt P16591), sequence (P16591 whole entry): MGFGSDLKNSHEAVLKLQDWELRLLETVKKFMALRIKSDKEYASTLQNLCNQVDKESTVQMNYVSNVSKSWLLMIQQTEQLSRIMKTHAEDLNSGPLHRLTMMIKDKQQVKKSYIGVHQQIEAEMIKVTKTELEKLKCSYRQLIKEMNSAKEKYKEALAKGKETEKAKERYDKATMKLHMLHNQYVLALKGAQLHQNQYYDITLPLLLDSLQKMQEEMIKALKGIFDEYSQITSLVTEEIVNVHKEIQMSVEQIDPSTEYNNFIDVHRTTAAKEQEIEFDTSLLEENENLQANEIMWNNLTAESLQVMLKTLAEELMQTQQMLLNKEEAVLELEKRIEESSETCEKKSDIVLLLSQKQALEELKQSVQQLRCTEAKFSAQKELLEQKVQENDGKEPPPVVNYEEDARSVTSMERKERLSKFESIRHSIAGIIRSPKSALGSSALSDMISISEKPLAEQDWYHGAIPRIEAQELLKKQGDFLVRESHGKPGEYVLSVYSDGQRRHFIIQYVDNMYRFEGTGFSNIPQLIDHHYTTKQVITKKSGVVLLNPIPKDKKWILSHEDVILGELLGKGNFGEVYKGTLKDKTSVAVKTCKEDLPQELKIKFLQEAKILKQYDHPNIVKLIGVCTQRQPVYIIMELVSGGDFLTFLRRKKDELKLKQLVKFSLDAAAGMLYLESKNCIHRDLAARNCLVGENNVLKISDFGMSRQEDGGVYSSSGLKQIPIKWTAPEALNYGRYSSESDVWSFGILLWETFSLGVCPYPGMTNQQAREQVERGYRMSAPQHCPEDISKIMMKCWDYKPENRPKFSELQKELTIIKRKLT
protein kinases (human kinome) (Homo sapiens, UniProt Q00534), sequence (Q00534 whole entry): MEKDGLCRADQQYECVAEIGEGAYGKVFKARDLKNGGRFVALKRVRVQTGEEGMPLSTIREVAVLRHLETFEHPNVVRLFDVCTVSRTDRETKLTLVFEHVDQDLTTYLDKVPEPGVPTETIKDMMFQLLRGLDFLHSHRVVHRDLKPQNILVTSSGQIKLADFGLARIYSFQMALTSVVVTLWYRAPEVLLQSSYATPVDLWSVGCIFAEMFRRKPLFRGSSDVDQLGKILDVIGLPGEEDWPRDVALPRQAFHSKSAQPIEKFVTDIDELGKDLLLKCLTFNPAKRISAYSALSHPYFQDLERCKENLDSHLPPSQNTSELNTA
protein kinases (human kinome) (Homo sapiens, UniProt P11802), sequence (P11802 whole entry): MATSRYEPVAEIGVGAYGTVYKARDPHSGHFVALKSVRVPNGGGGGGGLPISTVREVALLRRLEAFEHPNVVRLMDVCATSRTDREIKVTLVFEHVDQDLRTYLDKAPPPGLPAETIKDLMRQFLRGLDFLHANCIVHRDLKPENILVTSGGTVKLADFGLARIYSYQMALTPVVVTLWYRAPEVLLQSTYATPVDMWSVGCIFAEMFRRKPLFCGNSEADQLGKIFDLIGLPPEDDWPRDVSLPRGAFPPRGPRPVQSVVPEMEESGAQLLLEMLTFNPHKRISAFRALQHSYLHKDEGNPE

Consider `CC(C)S(=O)(=O)c1ccccc1Nc1nc(Nc2ccc(N3CCN(CCOCCNC(=O)CNc4ccc5c(c4)C(=O)N(C4CCC(=O)NC4=O)C5=O)CC3)cc2)ncc1Cl` (stereo not drawn) [SK.3.93], for which the “logFC CDK4 (P11802)” value in assay [1] was −1.305. Moreover, in assay [2] (BLK P51451, experiment wp016), the “logFC of BLK” value is listed as −1.502. In assay [2] (Experiment wp016, down), the “logFC of BLK (P51451)” value is −1.502. Further, in assay [3] (CDK6 (Q00534), direction down, experiment wp016), the “logFC CDK6” value is reported as −0.8585. The “logFC of CDK6 (Q00534)” value in assay [3] (Experiment wp016, down) was −0.8585. Besides, in assay [4] (Experiment wp016, down), the “logFC of GAK (O14976)” value was −0.4334. Besides, the “logFC GAK” value in assay [4] (GAK (O14976), direction down, experiment wp016) is given as −0.4334. Also, in assay [5] (Experiment wp016, down), the “logFC of FER (P16591-1)” value was −2.64. Also, the “logFC of FER” value in assay [5] (FER P16591-1, experiment wp016) is −2.64. Also, in assay [6], the “logFC AURKA (O14965)” value is given as −1.823. Moreover, the “logFC AAK1” value in assay [7] (AAK1 (Q2M218-1), down) is −1.588; in assay [7] (AAK1, accession Q2M218-1, direction of change down), −1.588.

The record behind these values is patent publication US20240269139A1, “COMPOUNDS FOR TARGETED PROTEIN DEGRADATION OF KINASES” (DANA-FARBER CANCER INSTITUTE, INC., priority 2020, published 2024).
